Measurements: paper PMC11268729 (Journal of hepatology, 2023)
Entries after “also recorded” stand apart in the source; their conditions may differ.

Key:
dispersed HLOs = assay: Dispersed HLOs in 384-well plates, cell viability counts by high-content imaging; assay type: cell-based, human; conditions: for cytotoxicity: monotherapies up to concentration of 100 μM, 120 hrs
PaDLOCs [1] = assay: PaDLOC; assay type: cell-based, human; conditions: for ALT or AST release: monotherapy 500 nM; for albumin production: across 7 days
PaDLOCs [2] = assay: PaDLOC confocal imaging; assay type: cell-based, human; conditions: for UMAP morphological clustering: PaDLOCs, CellProfiler cell-level features; for morphological deviation: monotherapy 500 nM
patients = conditions: monotherapy, two clinical trials for HBV; cited from earlier work
PHH PaDLOCs = assay: PHH liver-chip ALT/AST release and albumin production; assay type: cell-based, human; conditions: PHH on chip; APAP and FIAU
PaDLOCs [3] = assay: Metabolic turnover of CYP substrates in PaDLOCs; conditions: PaDLOCs vs plate-cultured intact HLOs; slightly lower rates than PHHs
72.3-derived HLOs = assay: Morphological cell profiling; assay type: cell-based, human; conditions: for phenotypic cluster (UMAP/HDBScan): cells treated at respective IC50, 72.3-derived HLOs
PaDLOCs [4] = assay: scRNA-seq differential expression in hepatocytes of drug-treated PaDLOCs; assay type: cell-based, human; conditions: fialuridine 10 μM, tenofovir 500 nM; for KCNQ10T1 expression / RPS10 expression: compared to control; for DGAT1 expression: tenofovir-inarigivir 250 + 250 nM
[5] = in vivo; cited from earlier work
[6] = single agents 500 nM, combination 250 + 250 nM

CO[C@@H]1[C@H](OP(=O)(OC[C@H]2O[C@@H](n3cnc4c(N)ncnc43)C[C@@H]2O)SCOC(=O)OC(C)C)[C@@H](CO)O[C@H]1n1ccc(=O)[nH]c1=O (stereo partly shown) [inarigivir soproxil]
cytotoxicity (dispersed HLOs): negligible cytotoxicity | ALT or AST release (PaDLOCs [1]): did not increase ALT or AST release | albumin production (PaDLOCs [1]; [6]): no effect was observed | UMAP morphological clustering (PaDLOCs [2]): clustered with DMSO control | morphological deviation (PaDLOCs [2]): no morphological deviation from DMSO-treated control | toxicity in clinical trials (patients): no clear signs of toxicity

CC(=O)Nc1ccc(O)cc1 [APAP, acetaminophen]
albumin production (PaDLOCs [1]; APAP 100 μM, FIAU 10 μM): diminished | ALT/AST release and reduced albumin production (PHH PaDLOCs): not significant | UMAP morphological clustering (PaDLOCs [2]): unique cluster | metabolic turnover rate (PaDLOCs [3]): increased rates compared to plate-cultured intact HLOs

O=P1(N(CCCl)CCCl)NCCCO1 (stereo not shown) [cyclophosphamide]
metabolic turnover rate (PaDLOCs [3]): increased rates compared to plate-cultured intact HLOs

Nc1nc2nc[nH]c2c(=S)[nH]1 [thioguanine]
phenotypic cluster (UMAP/HDBScan) (72.3-derived HLOs): Cluster α

Cc1ccnc2c1NC(=O)c1cccnc1N2C1CC1 [nevirapine]
IC50 relative to reported Cmax in patients (dispersed HLOs; 72.3 derived HLOs, Cmax ref 53): over double that of reported Cmax | phenotypic cluster (UMAP/HDBScan) (72.3-derived HLOs): Cluster γ

Oc1ncnc2[nH]ncc12 [allopurinol]
phenotypic cluster (UMAP/HDBScan) (72.3-derived HLOs): Cluster α; also recorded: Cluster γ

CO[C@H]1/C=C/O[C@@]2(C)Oc3c(C)c(O)c4c(O)c(c(/C=N/N5CCN(C)CC5)c(O)c4c3C2=O)NC(=O)/C(C)=C\C=C\[C@H](C)[C@H](O)[C@@H](C)[C@@H](O)[C@@H](C)[C@H](OC(C)=O)[C@@H]1C [rifampin]
phenotypic cluster (UMAP/HDBScan) (72.3-derived HLOs): Cluster γ

C[C@H](Cn1cnc2c(N)ncnc21)OCP(=O)(O)O [tenofovir]
cytotoxicity (dispersed HLOs): negligible cytotoxicity | ALT or AST release (PaDLOCs [1]): did not increase ALT or AST release | albumin production (PaDLOCs [1]; [6]): no effect was observed | UMAP morphological clustering (PaDLOCs [2]): clustered with DMSO control | morphological deviation (PaDLOCs [2]): no morphological deviation from DMSO-treated control | KCNQ10T1 expression (PaDLOCs [4]): overexpression | RPS10 expression (PaDLOCs [4]): suppressed expression | GSTP1 expression (PaDLOCs [4]): decreased expression | DGAT1 expression (PaDLOCs [4]): downregulated | Cmax [5]: ~500 nM

O=c1[nH]c(=O)n([C@@H]2O[C@H](CO)[C@@H](O)[C@@H]2F)cc1I [FIAU, fialuridine]
multidimensional perturbation of cells (72.3-derived HLOs; sub-cytotoxic concentrations, Fig. S5 B-C): diminished mitochondrial mass and lipid accumulation | albumin production (PaDLOCs [1]; APAP 100 μM, FIAU 10 μM): diminished | ALT/AST release and reduced albumin production (PHH PaDLOCs): not significant | confocal phenotype (CellMask, lipid droplets) (PaDLOCs [2]; APAP 100 μM, FIAU 10 μM, day 7 of treatment): high lipid content and a reduction of CellMask staining | KCNQ10T1 expression (PaDLOCs [4]): overexpression | RPS10 expression (PaDLOCs [4]): suppressed expression | GSTP1 expression (PaDLOCs [4]): decreased expression | DGAT1 expression (PaDLOCs [4]): downregulated
